Article PMC6162288, “On-chip spatiotemporal electrophysiological analysis of human stem cell derived cardiomyocytes enables quantitative assessment of proarrhythmia in drug development” (Scientific Reports, 2018)
Several values for one entry are separate records, joined by “and”; a condition that tells them apart may be missing. Identical values can stand only once.

Tests used:
lined-up hESC-CMs = test: MEA field potential recording of lined-up hESC-CMs (cFPD, CT, their STVs, ISI, beat rate, arrest); format: cell-based, human; details: for BR (beat rate) / Cond. Time (CT) / ISI (inter-spike interval) / STVCT / STVcFPD / cFPD: change vs Ctrl.
Protocol: Human embryonic stem cell-derived cardiomyocytes clusters (hES-CMCs) were shipped from Cellectis (hES-CMCTM002, hES cell line SA002, Gothenburg, Sweden)[42],[43], and maintained in Dulbecco’s modified Eagle’s medium (DMEM) supplemented 20% heat-inactivated fetal bovaine serum, 1 mM GlutaMax, 100 U/mL penicillin, 0.1 mg/mL streptomycin, 1% nonessential amino acids and 0.1 mM β-mercaptoethanol (Invitrogen, Carsbad, CA, USA). Dispersed cardiomyocytes were isolated from hES-CMCs by a modification of the methods of Norström et al.[44]–[48]. […] The supernatant was gently aspirated with pipette, and a 5-hold volume of DMEM was added as stop solution. Remaining clusters were treats ed with the above process with several times. The supernatants were collected and centrifuged with 200 × g for 2–3 min at 4 °C. The resulting supernatant including dispersed cells was seeded into agarose microchambers on an MEA chip (MED-P530A; AlphaMED scientific. Co. Ltd., Japan)[40].
The MEA chip surface was prepared as follows. First, the chip surface was coated with collagen type I-C (Nitta Gelatin, Japan). After drying, the chip surface was coated with a 0.1% agarose gel. […] At >30 min before the start of experiment, the medium was changed to 2 mL pre-warmed fresh maintenance medium per chip.
Extracellular potential recordings of the lined-up hESC-CMs were performed using the MEA system at a sampling rate of 10 kHz with a low path filter of 2 kHz and high path filter of 1 Hz, and signals were amplified by 100–50,000 using the amplifier. The MEA chip with lined-up hESC-CMs was set in the FP measurement device and placed in a humidified cell culture incubator at 37 °C, 5% CO2. The signals were analyzed by Igor Pro 6.0 (WaveMetrics, Inc., USA) and FlexPro 7.0 (Weisang GmbH, Germany).
We adopted the same drug administration protocol as we examined previously[40] (Fig. 2B). Briefly, the MEA chips of lined-up cells for experiments were selected from the chips having 0.6–1.1 Hz beating frequency and ventricle-like waveforms of FP recordings (see Fig. 1B,D). The MEA chip was placed in the holder of the FP measurement device, and equilibrated for 5 min, and then the control FP waveforms were recorded for 10 min. Subsequently, the drug was applied to the medium at 1% dilution in serially increasing additions, and the FP waveforms were recorded for 10 min at each concentration. Finally, the drug-containing medium was replaced with fresh medium after washing three times. The last 50 beats extracted from 10 min recorded FP waveform data was used for beat rate, FPD (the time from first depolarization peak to broad repolarization peak) and CT (the time difference of the first peaks between separately placed electrodes in lined-upped cell-network) measurement at each concentration (Fig. 2C).
It was normalized (cFPD) to the beating rate of cardiomyocytes using Bazett’s correction formula based on the comparison of the slope of a plot of inter-spike interval and FPD, or corrected FPD by Bazett’s or Fridericia’s formulae (Fig. 3). The short-term variability (STV) of cFPD and CT, which was defined as the mean distance of points perpendicular to the line of identity in the Poincaré plot, was calculated ( STV=∑|D(n+1)−Dn|/(n×2) , where Dn represents the FPD and CT of n-th beating). STVs were last 50 beat data from 5 min extraction of cFPD and CT. To assess the arrhythmogenicity risk of test drugs, the mean values of cFPD, STVcFPD, CT and STVCT of each drug were plotted.

Nav1.5 = details: read-out: IC50 Nav1.5; cited from earlier work
hERG = details: cited from earlier work
Cav1.2 = details: read-out: IC50 Cav1.2; cited from earlier work
[1] = cited from earlier work
[2] = Conc. 10^3 nM (1 μM), listed as astemizole

COc1ccc(CCN2CCC(Nc3nc4ccccc4n3Cc3ccc(F)cc3)CC2)cc1 [Astemizole, astemizole]
BR (beat rate) (lined-up hESC-CMs; Conc. 1 nM): 6.0%
Cond. Time (CT) (lined-up hESC-CMs; Conc. 1 nM): −0.99%
ISI (inter-spike interval) (lined-up hESC-CMs; Conc. 1 nM): −5.4%
STVCT (lined-up hESC-CMs; Conc. 1 nM): 46%
STVcFPD (lined-up hESC-CMs; Conc. 1 nM): −14%
cFPD (lined-up hESC-CMs; Conc. 1 nM): 0.24%
BR (beat rate) (lined-up hESC-CMs; Conc. 10 nM): 6.5%
Cond. Time (CT) (lined-up hESC-CMs; Conc. 10 nM): −3.0%
ISI (inter-spike interval) (lined-up hESC-CMs; Conc. 10 nM): −5.9%
STVCT (lined-up hESC-CMs; Conc. 10 nM): 13%
STVcFPD (lined-up hESC-CMs; Conc. 10 nM): 3.5%
cFPD (lined-up hESC-CMs; Conc. 10 nM): 0.69%
Cond. Time (CT) (lined-up hESC-CMs; Conc. 10^2 nM (0.1 μM)): −1.4%
STVCT (lined-up hESC-CMs; Conc. 10^2 nM (0.1 μM)): 483%
STVcFPD (lined-up hESC-CMs; Conc. 10^2 nM (0.1 μM)): 14%
cFPD (lined-up hESC-CMs; Conc. 10^2 nM (0.1 μM)): 4.4%
STVCT (lined-up hESC-CMs; Conc. 10^2 nM (0.1 μM), listed as astemizole): 483%
BR (beat rate) (lined-up hESC-CMs; Conc. 10^2 nM): 6.1%
ISI (inter-spike interval) (lined-up hESC-CMs; Conc. 10^2 nM): −5.3%
Cond. Time (CT) (lined-up hESC-CMs; Conc. 10^3 nM (1 μM)): 126%
STVCT (lined-up hESC-CMs; Conc. 10^3 nM (1 μM)): 196%
STVcFPD (lined-up hESC-CMs; Conc. 10^3 nM (1 μM)): 122%
cFPD (lined-up hESC-CMs; Conc. 10^3 nM (1 μM)): 43.7% and 44%
STVCT (lined-up hESC-CMs; [2]): 196%
STVcFPD (lined-up hESC-CMs; [2]): 122%
BR (beat rate) (lined-up hESC-CMs; Conc. 10^3 nM): −2.5%
ISI (inter-spike interval) (lined-up hESC-CMs; Conc. 10^3 nM): 3.1%
BR (beat rate) (lined-up hESC-CMs; Conc. 10^−1 nM): 2.0%
ISI (inter-spike interval) (lined-up hESC-CMs; Conc. 10^−1 nM): −1.9%
STVCT (lined-up hESC-CMs; Conc. 10^−1 nM): 46%
STVcFPD (lined-up hESC-CMs; Conc. 10^−1 nM): −2.8%
cFPD (lined-up hESC-CMs; Conc. 10^−1 nM): −0.71%
Cond. Time (CT) (lined-up hESC-CMs; Conc. 10^−1 nM, 150 μm inter-electrode distance): −3.3%
CT (lined-up hESC-CMs; at equivalent concentrations of Nav1.5 IC50): increased
IC50 (Nav1.5): 2200 nM
IC50 (Cav1.2): 700 nM
EPTC ([1]; effective therapeutic plasma concentration): 5.5 to 7.9 nM
Unbound ([1]; unbound therapeutic plasma concentration): 0.2 to 0.26 nM
